Measured values taken from US12139520B2 (priority 2020, dated 2024).
Bridge positions count the residues as written; N and C are the ends. Square brackets hold non-standard residues; d marks the D form. Peptide text beside a SMILES is read from it. Hyp = O=C(O)[C@@H]1C[C@@H](O)CN1

How the values were obtained:
[1] = Physical stability of peptide analogues (Thioflavin T fibrillation); format: physicochemical; conditions: maximum ThT signal normalized between hAMY maximum and buffer background; 40° C., shaking, four days; pH 7 per table title
Outline: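 Samples are stressed at 40 °C for four days, being shaken at 700 rpm before each 10-min fluorescence reading of 4 μM Thioflavin T. Buffers were pH 4 acetate or pH 7 phosphate. Reported values are smoothed maximum ThT signals as a percentage of the hAMY-to-background range.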

hAMY3 receptor = target: T1, hAMY3 receptor (Homo sapiens, UniProt O60896+P30988); test: cAMP assay for in vitro receptor activation, hAMY3-R; format: cell-based; conditions: cAMP assay, hAMY3 receptor; read-out: hAMY3R EC50
T1 sequence (P30988 25-474): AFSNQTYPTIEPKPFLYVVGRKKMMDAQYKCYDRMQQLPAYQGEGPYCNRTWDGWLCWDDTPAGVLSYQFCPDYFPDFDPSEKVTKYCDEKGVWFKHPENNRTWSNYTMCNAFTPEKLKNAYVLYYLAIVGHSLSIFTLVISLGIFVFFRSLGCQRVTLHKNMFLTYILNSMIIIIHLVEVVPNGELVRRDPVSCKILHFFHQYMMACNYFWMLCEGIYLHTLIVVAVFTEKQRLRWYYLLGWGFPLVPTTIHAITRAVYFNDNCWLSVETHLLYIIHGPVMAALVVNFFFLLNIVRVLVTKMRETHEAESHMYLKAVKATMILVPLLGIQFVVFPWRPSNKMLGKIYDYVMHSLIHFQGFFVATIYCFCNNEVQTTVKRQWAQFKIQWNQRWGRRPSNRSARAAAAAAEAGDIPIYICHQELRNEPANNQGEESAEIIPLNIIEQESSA
T1 sequence (O60896 24-148 partner): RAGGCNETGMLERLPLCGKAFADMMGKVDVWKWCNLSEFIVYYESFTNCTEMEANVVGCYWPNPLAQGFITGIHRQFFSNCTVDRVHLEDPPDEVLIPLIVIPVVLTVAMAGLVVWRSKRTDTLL
Outline: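 Read-out is TR-FRET cAMP signal, recorded one hour after reagent addition, following 30 min room-temperature stimulation of stable hAMY3 cells with graded compound doses in casein/IBMX (0.5 mM) buffer.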

SMILES	Max ThT signal (%) [1]	EC50 (hAMY3 receptor)
CC[C@H](C)[C@@H]1NC(=O)[C@H](CCCNC(=N)N)NC(=O)[C@@H](NC(=O)CN)CSSC[C@@H](C(=O)N[C@H](C(=O)N[C@H](C(=O)N[C@@H](CCC(N)=O)C(=O)N[C@@H](CCCNC(=N)N)C(=O)N[C@@H](CC(C)C)C(=O)N[C@@H](C)C(=O)N[C@@H](Cc2c[nH]cn2)C(=O)N[C@@H](CCC(N)=O)C(=O)N[C@H](C(=O)N[C@@H](Cc2ccc(O)cc2)C(=O)N[C@@H](CCC(N)=O)C(=O)N[C@@H](Cc2ccccc2)C(=O)N[C@H](C(=O)N[C@@H](CC(=O)O)C(=O)N[C@@H](CCCCN)C(=O)N[C@@H](Cc2ccccc2)C(=O)N[C@@H](CCCCN)C(=O)N[C@@H](CC(=O)O)C(=O)N[C@@H](CC(N)=O)C(=O)N[C@H](C(=O)N[C@@H](C)C(=O)N2CCC[C@H]2C(=O)N[C@@H](CCCNC(=N)N)C(=O)N[C@@H](CO)C(=O)N[C@@H](CCCCN)C(=O)N[C@H](C(=O)N[C@@H](CO)C(=O)N2CCC[C@H]2C(=O)N[C@@H](CCC(N)=O)C(=O)N[C@H](C(=O)N2C[C@H](O)C[C@H]2C(N)=O)[C@@H](C)O)[C@@H](C)CC)C(C)C)[C@@H](C)O)[C@@H](C)CC)C(C)C)[C@@H](C)O)NC(=O)[C@H]([C@@H](C)O)NC(=O)CNC1=O [compound 147] (H-GCRIGTCTVQRLAHQIYQFTDKFKDNVAPRSKISPQT[Hyp]-NH2; disulfide 2-7; N-terminus assumed)	5.100%	0.04 nM
CC[C@H](C)[C@H](NC(=O)[C@H](CCC(N)=O)NC(=O)[C@H](Cc1c[nH]cn1)NC(=O)[C@H](C)NC(=O)[C@H](CC(C)C)NC(=O)[C@H](CCCNC(=N)N)NC(=O)[C@H](CCC(N)=O)NC(=O)[C@@H](NC(=O)[C@@H](NC(=O)[C@@H]1CSSC[C@H](NC(=O)CN)C(=O)N[C@@H](CCCNC(=N)N)C(=O)N[C@@H](Cc2ccccc2)C(=O)NCC(=O)N[C@@H]([C@@H](C)O)C(=O)N1)[C@@H](C)O)C(C)C)C(=O)N[C@@H](Cc1ccc(O)cc1)C(=O)N[C@@H](CCC(N)=O)C(=O)N[C@@H](Cc1ccccc1)C(=O)N[C@H](C(=O)N[C@@H](CC(=O)O)C(=O)N[C@@H](CCCCN)C(=O)N[C@@H](CC(=O)O)C(=O)N[C@@H](CCCCN)C(=O)N[C@@H](CC(=O)O)C(=O)N[C@@H](CC(N)=O)C(=O)N[C@H](C(=O)N[C@@H](C)C(=O)N1CCC[C@H]1C(=O)N[C@@H](CCCNC(=N)N)C(=O)N[C@@H](CO)C(=O)N[C@@H](CCCCN)C(=O)N[C@H](C(=O)NCC(=O)N1CCC[C@H]1C(=O)N[C@@H](CCC(N)=O)C(=O)NCC(=O)N1C[C@H](O)C[C@H]1C(N)=O)C(C)C)C(C)C)[C@@H](C)O [compound 152] (H-GCRFGTCTVQRLAHQIYQFTDKDKDNVAPRSKVGPQG[Hyp]-NH2; disulfide 2-7; N-terminus assumed)	1.900%	0.041 nM
CC[C@H](C)[C@H](NC(=O)[C@H](CCC(N)=O)NC(=O)[C@H](Cc1c[nH]cn1)NC(=O)[C@H](C)NC(=O)[C@H](CC(C)C)NC(=O)[C@H](CCCNC(=N)N)NC(=O)[C@H](CCC(N)=O)NC(=O)[C@@H](NC(=O)[C@@H](NC(=O)[C@@H]1CSSC[C@H](NC(=O)CN)C(=O)N[C@@H](CCCNC(=N)N)C(=O)N[C@@H]([C@@H](C)O)C(=O)NCC(=O)N[C@@H]([C@@H](C)O)C(=O)N1)[C@@H](C)O)C(C)C)C(=O)N[C@@H](Cc1ccc(O)cc1)C(=O)N[C@@H](CCC(N)=O)C(=O)N[C@@H](Cc1ccccc1)C(=O)N[C@H](C(=O)N[C@@H](CC(=O)O)C(=O)N[C@@H](CCCCN)C(=O)N[C@@H](CC(=O)O)C(=O)N[C@@H](CCCCN)C(=O)N[C@@H](CC(=O)O)C(=O)N[C@@H](CC(N)=O)C(=O)N[C@H](C(=O)N[C@@H](C)C(=O)N1CCC[C@H]1C(=O)N[C@@H](CCCNC(=N)N)C(=O)N[C@H](C(=O)N[C@@H](CCCCN)C(=O)N[C@H](C(=O)NCC(=O)N1CCC[C@H]1C(=O)N[C@@H](CCC(N)=O)C(=O)NCC(=O)N[C@@H](Cc1ccc(O)cc1)C(N)=O)C(C)C)[C@@H](C)O)C(C)C)[C@@H](C)O [compound 156] (H-GCRTGTCTVQRLAHQIYQFTDKDKDNVAPRTKVGPQGY-NH2; disulfide 2-7; N-terminus assumed)	15.300%	0.047 nM
CC[C@H](C)[C@H](NC(=O)[C@H](CCC(N)=O)NC(=O)[C@H](Cc1c[nH]cn1)NC(=O)[C@H](C)NC(=O)[C@H](CC(C)C)NC(=O)[C@H](CCCNC(=N)N)NC(=O)[C@H](CCC(N)=O)NC(=O)[C@@H](NC(=O)[C@@H](NC(=O)[C@@H]1CSSC[C@H](NC(=O)CN)C(=O)N[C@@H](CCCNC(=N)N)C(=O)N[C@@H](Cc2ccccc2)C(=O)NCC(=O)N[C@@H]([C@@H](C)O)C(=O)N1)[C@@H](C)O)C(C)C)C(=O)N[C@@H](Cc1ccc(O)cc1)C(=O)N[C@@H](CCC(N)=O)C(=O)N[C@@H](Cc1ccccc1)C(=O)N[C@H](C(=O)N[C@@H](CC(=O)O)C(=O)N[C@@H](CCCCN)C(=O)N[C@@H](CC(=O)O)C(=O)N[C@@H](CCCCN)C(=O)N[C@@H](CC(=O)O)C(=O)N[C@@H](CC(N)=O)C(=O)N[C@H](C(=O)N[C@@H](C)C(=O)N1CCC[C@H]1C(=O)N[C@@H](CCCNC(=N)N)C(=O)N[C@@H](CO)C(=O)N[C@@H](CC(N)=O)C(=O)N[C@H](C(=O)N[C@@H](CO)C(=O)N1CCC[C@H]1C(=O)N[C@@H](CCC(N)=O)C(=O)NCC(=O)N1C[C@H](O)C[C@H]1C(N)=O)[C@@H](C)CC)C(C)C)[C@@H](C)O [compound 158] (H-GCRFGTCTVQRLAHQIYQFTDKDKDNVAPRSNISPQG[Hyp]-NH2; disulfide 2-7; N-terminus assumed)	6.300%	0.048 nM
CC[C@H](C)[C@H](NC(=O)[C@H](CCCCN)NC(=O)[C@@H](NC(=O)[C@H](CCCNC(=N)N)NC(=O)[C@@H]1CCCN1C(=O)[C@H](C)NC(=O)[C@@H](NC(=O)[C@H](CC(N)=O)NC(=O)[C@H](CC(=O)O)NC(=O)[C@H](CCCCN)NC(=O)[C@H](CC(=O)O)NC(=O)[C@H](CCCCN)NC(=O)[C@H](CC(=O)O)NC(=O)[C@@H](NC(=O)[C@H](Cc1ccccc1)NC(=O)[C@H](CCC(N)=O)NC(=O)[C@H](Cc1ccc(O)cc1)NC(=O)[C@@H](NC(=O)[C@H](CCC(N)=O)NC(=O)[C@H](Cc1c[nH]cn1)NC(=O)[C@H](C)NC(=O)[C@H](CC(C)C)NC(=O)[C@H](CCCNC(=N)N)NC(=O)[C@H](CCC(N)=O)NC(=O)[C@@H](NC(=O)[C@@H](NC(=O)[C@@H]1CSSC[C@H](NC(=O)CN)C(=O)N[C@@H](CCCNC(=N)N)C(=O)N[C@@H]([C@@H](C)O)C(=O)NCC(=O)N[C@@H]([C@@H](C)O)C(=O)N1)[C@@H](C)O)C(C)C)[C@@H](C)CC)[C@@H](C)O)C(C)C)[C@@H](C)O)C(=O)NCC(=O)N1CCC[C@H]1C(=O)N[C@@H](CCC(N)=O)C(=O)NCC(=O)N1C[C@H](O)C[C@H]1C(N)=O [compound 161] (H-GCRTGTCTVQRLAHQIYQFTDKDKDNVAPRTKIGPQG[Hyp]-NH2; disulfide 2-7; N-terminus assumed)	14.300%	0.051 nM
CC[C@H](C)[C@H](NC(=O)[C@H](CCC(N)=O)NC(=O)[C@H](Cc1c[nH]cn1)NC(=O)[C@H](C)NC(=O)[C@H](CC(C)C)NC(=O)[C@H](CCCNC(=N)N)NC(=O)[C@H](CCC(N)=O)NC(=O)[C@@H](NC(=O)[C@@H](NC(=O)[C@@H]1CSSC[C@H](NC(=O)CN)C(=O)N[C@@H](CCCNC(=N)N)C(=O)N[C@@H]([C@@H](C)O)C(=O)NCC(=O)N[C@@H]([C@@H](C)O)C(=O)N1)[C@@H](C)O)C(C)C)C(=O)N[C@@H](Cc1ccc(O)cc1)C(=O)N[C@@H](CCC(N)=O)C(=O)N[C@@H](Cc1ccccc1)C(=O)N[C@H](C(=O)N[C@@H](CC(=O)O)C(=O)N[C@@H](CCCCN)C(=O)N[C@@H](CC(=O)O)C(=O)N[C@@H](CCCCN)C(=O)N[C@@H](CC(=O)O)C(=O)N[C@@H](CC(N)=O)C(=O)N[C@H](C(=O)N[C@@H](C)C(=O)N1CCC[C@H]1C(=O)N[C@@H](CCCNC(=N)N)C(=O)N[C@H](C(=O)N[C@@H](CC(N)=O)C(=O)N[C@H](C(=O)N[C@@H](CO)C(=O)N1CCC[C@H]1C(=O)N[C@@H](CC(N)=O)C(=O)NCC(=O)N1C[C@H](O)C[C@H]1C(N)=O)C(C)C)[C@@H](C)O)C(C)C)[C@@H](C)O [compound 163] (H-GCRTGTCTVQRLAHQIYQFTDKDKDNVAPRTNVSPNG[Hyp]-NH2; disulfide 2-7; N-terminus assumed)	2.000%	0.053 nM
